Source: patent publication US8563564B2, “Composition for skin external application containing gallocatechin gallate for moisturizing effect on the skin” (priority 2005, dated 2013)

Tests used:
[1] = system: PPAR-α; test: PPAR-α activation capability, One-Factor-At-A-Time reporter gene (Dual-Luciferase) assay in CV-1 cells; assay type: cell-based; settings: ratio based on the negative control, mean of three tests
Description: (§1) One of the known methods for determining PPAR activation by observing PPAR activation/inactivation is reporter gene assay (Kliewer et. al., Nature, 1992, 358: 771-774). The reporter gene assay includes cloning a base sequence containing a promoter of interest and reporter genes, and injecting the base sequence into eukaryotic cells to activate transcription and to control the expression of a protein. Herein, protein expression increases as the promoter is activated. The reporter gene used for the first time is CAT (chloramphenicol acetyltransferase) gene. Recently, luciferase gene has been used widely. In the present invention, a Dual-Luciferase Reporter Assay System Kit available from Promega Co. was used. The following test was carried out to determine PPAR-α activation capability. CV-1 cells (ATCC CCL 70), i.e. monkey kidney epithelial cell line, were subcultured in a DMEM medium containing 10% bovine fetal serum treated with charcoal/dextrin. A phenol red-free medium was used to avoid the effect of estrogen upon phenol red. As plasmids, used were plasmids having PPRE (PPARs responsive element) as a promoter, followed by firefly luciferase genes as a reporter, the PPRE being activated by PPAR- (gene-containing PPAR- and ligand-bound PPAR-) bound next to the universal promoter expressed under general culture conditions, and a reference plasmid to which renilla luciferase genes were bound. CV-1 cells were plated on a 24-well microtiter plate at a concentration of 5×10^4 cells per well and cultured for 24 hours. Then, the above three types of plasmid genes were subjected to transient transfection by using a TransFast Kit available from Promega Co. After the cultured product was washed with PBS (phosphate buffered saline) once, the product was treated with a suitable concentration of sample materials, cultured again for 24 hours, and washed with PBS twice. Next, the cells were lysed with PLB (passive lysis buffer, Promega) once, and determined for luciferase activity by using a Dual-Luciferase Reporter Assay System Kit (Promega) in the samples and the controls. In this test, as a positive control, Wy14643 known as the strongest PPAR-α ligand was used. As negative controls, DMSO used to dissolve the samples and non-treated group were used. Each reported value was calculated as a ratio based on the negative control. The results are shown in the following Table 1, wherein each value is the mean value obtained after carrying out the test three times.

[2] = system: PPAR-α; test: PPAR-α activation capability of GCG/theobromine/quercetin combinations, response surface methodology (central composite design); assay type: cell-based
Description: as §1, with “CV-1” for “One of the known methods for determining PPAR activation by observing PPAR activation/inactivation is reporter gene assay (Kliewer et. al., Nature, 1992, 358: 771-774). The reporter gene assay includes cloning a base sequence containing a promoter of interest and reporter genes, and injecting the base sequence into eukaryotic cells to activate transcription and to control the expression of a protein. Herein, protein expression increases as the promoter is activated. The reporter gene used for the first time is CAT (chloramphenicol acetyltransferase) gene. Recently, luciferase gene has been used widely. In the present invention, a Dual-Luciferase Reporter Assay System Kit available from Promega Co. was used. The following test was carried out to determine PPAR-α activation capability. CV-1”, “times. […] When using RSM, it is possible to understand the level of an independent parameter where a response value is optimized, to estimate the effect of an independent parameter upon response parameters via estimation of a functional relationship between each independent parameter and dependent parameter, and to determine optimized experimental conditions. […]” for “times.”

Compound | PPAR-α Activation ([1]; 10 uM) | PPAR-α Activation ([1]; 100 uM) | also measured
CCNC(=O)CC[C@H](N)C(=O)O [Theanine] | 1.8 | 1.9 | 
Cn1c(=O)c2[nH]cnc2n(C)c1=O [Theophylline] | 1.4 | 1.7 | 
O=C(O)[C@]1(O)C[C@@H](O)[C@@H](O)[C@H](O)C1 [Quinic acid] | 1.3 | 1.7 | 
Oc1cc(O)c2c(c1)O[C@H](c1ccc(O)c(O)c1)[C@@H](O)C2 [(+) CA] | 1.5 | 1.4 | 
O=c1c(O)c(-c2ccc(O)c(O)c2)oc2cc(O)cc(O)c12 [Quercetin] | 1.7 | 2.3 | fold (PPAR-α activation) ([2]; GCG 0, theobromine 0, quercetin 100): 1.3 fold
Oc1cc(O)c2c(c1)O[C@@H](c1ccc(O)c(O)c1)[C@@H](O)C2 [(+) EC] | 1.3 | 1.2 | 
Oc1cc(O)c2c(c1)O[C@@H](c1cc(O)c(O)c(O)c1)[C@H](O)C2 [(−) GC] | 1.1 | 1.0 | 
Oc1cc(O)c2c(c1)O[C@H](c1ccc(O)c(O)c1)[C@H](O)C2 [(−) EC] | 1.2 | 1.2 | 
Oc1cc(O)c2c(c1)O[C@H](c1cc(O)c(O)c(O)c1)[C@H](O)C2 [(−) EGC] | 1.3 | 1.0 | 
C[C@@H]1O[C@@H](OC[C@H]2O[C@@H](Oc3c(-c4ccc(O)c(O)c4)oc4cc(O)cc(O)c4c3=O)[C@H](O)[C@@H](O)[C@@H]2O)[C@H](O)[C@H](O)[C@H]1O [Rutin hydrate] | 1.6 | 1.3 | 
O=C(O)c1cc(O)c(O)c(O)c1 [Gallic acid] | 1.3 | 1.7 | 
Cn1cnc2c1c(=O)[nH]c(=O)n2C [Theobromine] | 2.2 | 4.5 | fold (PPAR-α activation) ([2]; GCG 0, theobromine 100, quercetin 0): 1.905 fold
O=c1c(O)c(-c2ccc(O)cc2)oc2cc(O)cc(O)c12 [Kaempferol] | 1.7 | 1.4 | 
Epigallocatechin gallate [(−) EGCG] | 1.0 | 1.5 | 
O=C(O[C@@H]1Cc2c(O)cc(O)cc2O[C@H]1c1ccc(O)c(O)c1)c1cc(O)c(O)c(O)c1 [(−) CG] | 1.2 | 1.6 | 
Cn1c(=O)c2c(ncn2C)n(C)c1=O [Caffeine] | 1.3 | 1.6 | 
O=C(O[C@@H]1Cc2c(O)cc(O)cc2O[C@H]1c1cc(O)c(O)c(O)c1)c1cc(O)c(O)c(O)c1 [(−) GCG, gallocatechin gallate] | 1.1 | 2.3 | fold (PPAR-α activation) ([2]; GCG 100, theobromine 0, quercetin 0): 1.191 fold
O=c1c(O)c(-c2cc(O)c(O)c(O)c2)oc2cc(O)cc(O)c12 [Myricetin] | 1.7 | 1.6 | 
O=C(O[C@@H]1Cc2c(O)cc(O)cc2O[C@@H]1c1ccc(O)c(O)c1)c1cc(O)c(O)c(O)c1 [(−) ECG] | 1.1 | 1.6 | 
Cc1cccc(Nc2cc(Cl)nc(SCC(=O)O)n2)c1C [Positive Control, Wy14643] | 3.8 |  | PPAR-α Activation ([1]; 0.1 uM): 1.5; PPAR-α Activation ([1]; 1 uM): 2.6
